Assay results taken from the METLIN SMRT retention time set (Domingo-Almenara et al. 2019).

Assay: gradient 5% acetonitrile 3 min, to 50% in 2 min, to 85% in 15 min, held 3 min, 100 µL/min
Conditions: column: Zorbax Extend-C18 2.1 x 50 mm; eluents: water / acetonitrile, 0.1% formic acid
In short: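 Retention time was recorded from adduct peaks, which were picked computationally and each inspected manually. Pure standards ran in mixtures of ~100 molecules on HPLC coupled to a quadrupole time-of-flight mass spectrometer, in positive and negative ionization mode, through a Zorbax Extend-C18 column (2.1 × 50 mm, 1.8 μm) at 100 μL/min. Eluents were water and acetonitrile, each with 0.1% formic acid.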

| Compound | RP-LC retention time |
| --- | --- |
| Cc1cc(C)cc(NC(=O)N2CCC(n3cnc4ccc(F)cc4c3=O)CC2)c1 | 861 s |
| CC1(C(=O)NC2CCCCCCC2)CN(S(C)(=O)=O)CC(=O)N1Cc1ccc(F)cc1 (stereo not given) | 740 s |
| Cc1cccc(-c2ncccc2CNS(=O)(=O)c2ccccc2)c1 | 677 s |
| CCOC(=O)CNC(=O)N1CCN(Cc2nc3cccnc3n2-c2ccc(F)cc2)CC1 | 602 s |
| Cc1noc2ncnc(N3CCCC(C(=O)N4CCN(c5ccc(Cl)cc5)CC4)C3)c12 (stereo not given) | 931 s |
| Cc1ccc(NC(=O)C(=O)c2ccc[nH]2)cc1F | 917 s |
| CCOC(=O)C1CCN(c2nc(=O)n(CC(=O)Nc3cccc(C)c3)c3ccccc23)CC1 | 833 s |
| Cc1ccc(C)c2sc(N(C)CC(=O)Nc3ccc(-n4cnnn4)cc3)nc12 | 896 s |
| CN1CCN(CCCNC(=O)c2ccccc2NC(=O)C2=CSCCO2)CC1 | 878 s |
| CCCCS(=O)(=O)c1cc2c(cc1NC(=O)Cc1cccc(F)c1)n(C)c(=O)n2C | 855 s |
| O=C(Cn1cnc(-c2cccs2)cc1=O)NCCOc1ccc(-c2ccco2)nn1 | 583 s |
| Cc1ccc(Cn2nc3ccc(S(=O)(=O)N4CCCCC4)cn3c2=O)cc1 | 952 s |
| CCOC(=O)c1ccc(NC(=O)c2ccc(S(=O)(=O)N(C)C)cc2)cc1 | 833 s |
| CC(C)N1CCC(CCNC(=O)C2CN(C(=O)c3ccncc3)CC23CCCCC3)CC1 (stereo not given) | 567 s |
| Cc1ccc(C)c(N2CCN(c3ccnc(SCC(=O)NCCC(C)C)n3)CC2)c1 | 920 s |
| COc1cc(Br)cc(CC2C(=O)Nc3ccccc32)c1OC (stereo not given) | 932 s |
| O=C(CC1CCCC1)N1CCN(c2ncccc2-c2nnc(C3CC3)o2)CC1 | 828 s |
| O=C(COc1ccccc1)Nc1nc(-c2ccc(Cl)cc2)cs1 | 1130 s |
| COC(=O)c1cnc2nc(C)ccc2c1Nc1ccc(Cl)cc1C | 721 s |
| O=c1ccc(N2CCC(NS(=O)(=O)c3ccccc3Cl)CC2)nn1CC1CC1 | 747 s |
| CCOc1cccc(-c2noc(CCn3nc(-c4ccc(Cl)cc4)ccc3=O)n2)c1 | 1130 s |
| O=C(Nc1cccn2cnnc12)c1cnccn1 | 590 s |
| COc1ccc2c(c1)C=C(C(=O)Nc1cc(OC)c(OC)c(OC)c1)CO2 | 909 s |

| Compound | RP-LC retention time |
| --- | --- |
| Cc1cc(NC(=O)CCCSc2ccc(F)cc2)no1 | 838 s |
| O=C(c1ccc(OCC2CCCN2C(=O)COc2ccc(F)cc2)cc1)N1CCCC1 (stereo not given) | 761 s |
| CN(C)[C@@H]1CN(C(=O)c2ccc(Cn3cncn3)o2)CC[C@@H]1CO | 518 s |
| Cc1ccc(C)c(C(=O)NCc2ccc(-n3ccnc3)cc2)c1 | 630 s |
| COc1ccc(C(=O)N2CC(C(=O)NC3CC3)C(c3ccc(OC)cc3OC)C2)cc1 (stereo not given) | 703 s |
| Cc1ccc(-c2noc(-c3ccc(NC(=O)c4ccc(Br)o4)cc3)n2)cc1 | 1290 s |
| Cc1cc(C)cc(C(=O)N2CCCC(C(=O)NCCc3cccs3)C2)c1 (stereo not given) | 850 s |
| CCC(C)NC(=O)COc1nc(C)nc2onc(-c3cccc(F)c3)c12 (stereo not given) | 932 s |
| COc1cc(OC)c(NC(=O)c2cnn(-c3ccccc3)c2)cc1Cl | 944 s |
| COc1cc(NC(=O)N2CCCC2c2cccc(F)c2)cc(OC)c1OC (stereo not given) | 848 s |
| Cc1ccc(NC(=O)N2CCC(N3CCN(Cc4ccccc4)C3=O)CC2)cc1 | 822 s |
| Cn1cnnc1-c1nn(C)c2c1CN(C(=O)c1n[nH]c3c1CCCCCC3)CC2 | 650 s |
| CCS(=O)(=O)N1CC(=O)N(c2ccc(C)c(F)c2)C(C)(C(=O)NC2CCCCCC2)C1 (stereo not given) | 968 s |
| CCc1cccc(NC(=O)Cn2c(N3CCCC3)nc(C)cc2=O)c1 | 682 s |
| CCn1ccc(C(=O)N2CC(c3nc(C4CC4)no3)C3(CCN(C)CC3)C2)n1 (stereo not given) | 586 s |
| OC(c1cc(C(F)(F)F)nc2c(Cl)cc(Cl)cc12)C1CCCCN1 (stereo not given) | 786 s |
| COc1ccc(-c2noc(C3(NC(=O)c4ccccc4OC)CCCCC3)n2)cc1 | 1210 s |
| Cc1cc(S(=O)(=O)N2CCN(C3CCN(C)C3=O)CC2)ccc1Cl (stereo not given) | 595 s |
| Cc1cc(C)c(NC(=O)Cn2ncc3c(N4CCN(c5ccccn5)CC4)ncnc32)c(C)c1 | 620 s |
| O=C1CCc2cc(NC(=O)c3ccc(-c4ccccc4)cc3)ccc2N1 | 760 s |
| COCCCNc1c(-c2ccc(F)cc2)nc2sc(C(=O)N3CCOCC3)c(C)n12 | 741 s |
| Cc1ccc(NS(=O)(=O)c2cc3n(c2)CCN(CC(C)C)C3=O)c(C)c1 | 841 s |
| Cc1cc2nn(CC(=O)N3CCC(C)CC3)c(=O)n2c(-c2ccc(F)cc2)n1 | 816 s |

| Compound | RP-LC retention time |
| --- | --- |
| Cc1cccc(S(=O)(=O)N(C)CC2CCOCC2)c1 | 863 s |
| Cc1[nH]c(C(=O)N2CCC(CC(=O)NCCC3=CCCCC3)CC2)c(C)c1C | 910 s |
| Cc1nc(C(=O)Nc2ccc(F)c(C)c2)c(C)o1 | 918 s |
| O=S(=O)(c1ccc(Cl)c(-c2nnc(-c3ccccc3)o2)c1)N1CCCC1 | 1040 s |
| CCc1ccc(C2=C(C)C(N3CCCN(C(=O)c4ccoc4)CC3)=NS2(=O)=O)cc1 | 832 s |
| COc1ccccc1Cc1noc(C2CN(S(=O)(=O)c3ccc(F)c(Cl)c3)C2)n1 | 1030 s |
| COCCCNS(=O)(=O)c1cc(-c2[nH]ncc2C(=O)N2CCCCC2)oc1C | 646 s |
| O=C(Cc1ccccc1)N1CCC(Nc2cccn3ncnc23)CC1 | 713 s |
| O=C(CC1CCN(S(=O)(=O)c2ccc(Cl)s2)CC1)N1CCCCC1 | 946 s |
| Cc1cc(C(=O)NCC23CCCC=C2NC(=O)CC3)nn1C (stereo not given) | 641 s |
| O=S(=O)(c1cccc(C(F)(F)F)c1)N1CCC(CN2CCCCC2)CC1 | 680 s |
| N#Cc1ccc(C(=O)Nc2cccnc2N2CCCC2)cc1 | 583 s |
| Cc1nn(-c2cc(N(C)C)ncn2)c(C)c1CCC(=O)NCc1ccccc1 | 716 s |
| CN(CCc1noc(COc2ccccc2F)n1)C(=O)c1cccs1 | 835 s |
| Cc1ccc(NC(=O)N2CCC(CCNC(=O)C3(c4ccccc4)CC3)CC2)cc1F | 928 s |
| Cc1ccc(Nc2c(-c3ccc(N4CCOCC4)cc3)nc3ccccn23)cc1 | 682 s |
| Cc1ccc(-c2[nH]ncc2CN2CC(F)(F)C[C@H]2CN2CCOCC2)cc1C | 654 s |
| Cn1c(CNC(=O)C2CCC2)nc2c1CN(C(=O)Nc1ccc(F)cc1)CC2 | 603 s |
| Cc1ccc(-c2noc(Cn3ccn(-c4cc(C)cc(C)c4)c(=O)c3=O)n2)cc1 | 612 s |
| CCOc1cc(=O)n2c(c1C(=O)NCCCN1CCCCC1)CCCCC2 | 568 s |
| CCc1cccc(C)c1NC(=O)Cn1c(=O)n(-c2ccc(F)cc2)c(=O)c2c1cc(C)n2C | 850 s |
| COCC(=O)Nc1nnc(SCc2nnc(-c3ccc4c(c3)OCO4)o2)s1 | 717 s |
| Cc1nnc2c(=O)n(CC(=O)N3CCCC(C)C3)c3cccnc3n12 (stereo not given) | 668 s |

| Compound | RP-LC retention time |
| --- | --- |
| Cc1ccc(N2CC(c3nc4ccccc4n3CC(=O)N(CC(C)C)CC(C)C)CC2=O)cc1 (stereo not given) | 967 s |
| CCN(C(=O)C1CCCN(c2ncnc3c2nc2n3CCCCC2)C1)c1cccc(C)c1 (stereo not given) | 903 s |
| Cc1nn(C)c(C)c1CCCN(C)C(=O)COc1ccc(NC(=O)C2CC2)cn1 | 605 s |
| CN1C(=O)C2(CCN(C(=O)c3ccc(Cl)cc3)C2)c2ccccc21 (stereo not given) | 851 s |
| O=S(=O)(NCC(O)C1CCCCC1)c1ccc(OC(F)(F)F)cc1 (stereo not given) | 949 s |
| Cn1cnnc1SCC(=O)N1CCCc2ccccc21 | 636 s |
| COCCOCc1nc(C2CCN(S(=O)(=O)c3ccc(OC)cc3)C2)no1 (stereo not given) | 791 s |
| Cc1nnc2c(NS(=O)(=O)c3ccccc3C(F)(F)F)cccn12 | 689 s |
| COc1ccc(Cl)cc1NC(=O)Nc1ccccc1NC(=O)c1ccco1 | 873 s |
| CCCCN1CCN(C(=O)C2CC(=O)N(c3ccc4c(c3)CCN4C(=O)C3CC3)C2)CC1 (stereo not given) | 599 s |
| Cc1cc(C)c(C(=O)N2CCCC(C(=O)N3CCN(c4cccc(C)c4C)CC3)C2)[nH]1 (stereo not given) | 996 s |
| CCOC(=O)CCC(=O)N1CCCC(COCc2ccccc2)C1 (stereo not given) | 842 s |
| CC(C(=O)N1CCCCC1)n1ccc2cc(S(=O)(=O)N3CCCCCC3)ccc21 (stereo not given) | 1010 s |
| Cc1oc(-c2[nH]ncc2C(=O)N(C)C)cc1S(=O)(=O)Nc1cccc(Cl)c1 | 703 s |
| Cc1ncsc1C1N(C2CCN(S(=O)(=O)c3ccccc3)CC2)C(=O)C12CCCC2 (stereo not given) | 850 s |
| Cc1ccc(S(=O)(=O)N2CCc3nc(NC(=O)c4ccnn4C)sc3C2)cc1 | 860 s |
| Cc1cc(C)n(-c2ccnc(N3CCC(C(=O)NCCc4cccs4)CC3)n2)n1 | 843 s |
| CCCCNC(=O)CCCn1c(=O)c2cccn2c2ccccc21 | 780 s |
| CCOC(=O)c1oc2ccc(S(=O)(=O)N3CCCC(CN4CCCC4)CC3)cc2c1C (stereo not given) | 733 s |
| CCCCN1C(=O)c2ccccc2C(C(=O)NCc2cccnc2)C12CCCCC2 (stereo not given) | 678 s |
| Cn1nnc2cc(CNC(=O)c3cccc(Cl)c3)ccc21 | 715 s |
